Columns and labels:
human EP2 (PTGER2) = target: T1, human EP2 (PTGER2) (Homo sapiens, UniProt P43116); assay: EP2 antagonist assay (HEK-293 CNG membrane potential cAMP assay / 293T SEAP reporter assay, PGE2-stimulated); type: cell-based; settings: EP2 antagonist activity; concentration for 50% inhibition of signal compared to DMSO
T1 construct: Cayman Chemical (Human EP2 Reporter Assay Kit)
Procedure, shortened: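 Two formats. In a CRE-SEAP reporter assay, reverse-transfected 293T cells received compound with PGE2 (13 nM final) for 6-8 h, then luminescence was read. In the ACTOne CNG format, HEK-293 cells were preincubated with compound for 15 min at RT, stimulated with 5 nM PGE2 for 30 min, and read by membrane-potential dye fluorescence. IC50 was taken versus DMSO.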

human EP4 (EP4R) = target: T2, human EP4 (EP4R) (Homo sapiens, UniProt P35408); assay: EP4 antagonist assay (HEK-293 CNG membrane potential cAMP assay / 293T SEAP reporter assay, PGE2-stimulated); type: cell-based; settings: EP4 antagonist activity; concentration for inhibition of signal compared to DMSO
T2 construct: Cayman Chemical (Human EP4 Reporter Assay Kit)
Source text: 1. The HEK-293 CNG (Cyclic Nucleotide Gated) cell line expressing a modified CNG channel that leads to cell membrane depolarization in response to elevated intracellular cAMP levels, which can be measured using a fluorescent membrane potential dye, was engineered to express human EP2 (PTGER2) or EP4 (EP4R). The resulting cell line ACTOne™ PTGER2 or ACTOne™ EP4R as well as the fluorescent membrane potential dye were purchased from eEnzyme (Gaithersburg, MD, US) and used in this assay. Briefly, cells were plated at 1.2×10^4 cells/well in 20 μL DMEM supplemented with 2% Fetal Bovine Serum (FBS, VWR International), 1x Penicillin/Streptomycin (GenClone), 0.2 μg/mL puromycin (InvivoGen) and 50 μg/mL G418 (InvivoGen) on a 384 well plate (Greiner). The next day, cells were dye-loaded with 20 μL/well of 1x Dye-loading solution (eENZYME) following the manufacturer's instruction. After 2 hours of incubation at room temperature (RT) in the dark, a pre-read was made to obtain the background signals using CLARIOstar plate reader (BMG LABTECH, Germany) with the following filter settings: excitation=530/20 nm, emission=590/20 nm. Next, a serial dilution of compound (plus a DMSO control) were added to the plate (5 μL/well) and the reaction was incubated at RT for 15 min before adding 5 μL of PGE2 to every well for a final concentration of 5 nM. All wells were duplicated. The plate was then further incubated at RT for 30 min prior to a final read with the same machine settings. Background-subtracted signals were used to calculate IC50 values.
2. Human EP2 and EP4 Reporter Assay Kits were purchased from Cayman Chemical (Ann Arbor, MI, USA). The assay was performed following the provided User Manual. Briefly, a reverse transfection was performed by seeding 6.0×10^4 of 293T cells (ATCC) to each well of the provided Strip Plate coated with a proprietary transfection complex containing DNA constructs for expressing human EP2 or EP4 and a cAMP response element regulated secreted alkaline phosphatase (SEAP) reporter, in 200 μL DMEM supplemented with 2% FBS and incubated for 20-24 hours at 37° C. with 5% CO2. After the incubation, the culture medium was carefully removed, and the cells were replenished with 150 μL pre-warmed serum-free medium. PGE2 and test compounds were prepared together at 4x the desired final concentration, and 50 μL was added to each assigned well with the final concentration of 13 nM and 2 nM PGE2 for EP2 and EP4 assay, respectively. After 6-8 hours of incubation, 10 μL media from each well was transferred to corresponding well of a new plate, which was then sealed and incubated at 65° C. for 30 min. The plate was then cooled down to RT and 50 μL SEAP substrate was added to each well. Luminescence signal was measured using a CLARIOstar plate reader.
The IC50 value was determined as the concentration for […] inhibition of signal compared to DMSO (A: IC50≤100 nM; B: IC50 between 100 nM and 1,000 nM; C: IC50≥1,000 nM).

T1 sequence (P43116 whole entry): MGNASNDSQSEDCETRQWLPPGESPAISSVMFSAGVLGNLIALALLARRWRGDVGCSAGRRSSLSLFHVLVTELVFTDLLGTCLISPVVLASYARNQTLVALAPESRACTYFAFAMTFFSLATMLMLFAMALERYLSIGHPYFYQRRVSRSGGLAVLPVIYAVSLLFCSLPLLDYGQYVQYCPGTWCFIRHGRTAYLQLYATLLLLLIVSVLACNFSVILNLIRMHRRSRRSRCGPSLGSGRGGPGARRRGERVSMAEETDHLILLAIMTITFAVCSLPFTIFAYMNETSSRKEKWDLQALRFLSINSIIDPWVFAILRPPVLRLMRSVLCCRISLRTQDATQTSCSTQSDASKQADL
T2 sequence (P35408 whole entry): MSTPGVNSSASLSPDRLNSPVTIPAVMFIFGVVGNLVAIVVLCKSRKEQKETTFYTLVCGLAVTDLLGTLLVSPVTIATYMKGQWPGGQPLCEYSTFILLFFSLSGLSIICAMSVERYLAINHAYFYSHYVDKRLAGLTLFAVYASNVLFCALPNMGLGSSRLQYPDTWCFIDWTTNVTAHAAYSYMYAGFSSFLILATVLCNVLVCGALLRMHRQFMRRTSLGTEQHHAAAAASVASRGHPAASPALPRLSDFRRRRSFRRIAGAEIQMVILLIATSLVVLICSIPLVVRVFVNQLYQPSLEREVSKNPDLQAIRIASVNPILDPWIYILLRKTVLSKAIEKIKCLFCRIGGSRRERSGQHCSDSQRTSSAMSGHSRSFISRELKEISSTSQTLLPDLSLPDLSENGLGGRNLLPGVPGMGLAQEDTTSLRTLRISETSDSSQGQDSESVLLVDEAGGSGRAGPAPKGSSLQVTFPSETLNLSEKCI

| SMILES | IC50 (human EP2 (PTGER2)) [µM] | IC50 (human EP4 (EP4R)) [µM] |
| --- | --- | --- |
| N#Cc1cccc(-c2cc(C(=O)NCc3ccc(C(=O)O)cc3)c3c(Sc4ccc(C(F)(F)F)cc4)c[nH]c3c2)c1 [Example 117, 4-((6-(3-cyanophenyl)-3-((4-(trifluoromethyl)phenyl)thio)-1H-indole-4-carboxamido)methyl)benzoic acid] | < 0.1 | ≤ 0.1 |
| O=C(O)c1ccc(CNC(=O)c2cc(-c3ccc(F)cc3)cc3ccn(Cc4cccc(C(F)(F)F)c4)c23)cc1 [Example 124, 4-((5-(4-fluorophenyl)-1-(3-(trifluoromethyl)benzyl)-1H-indole-7-carboxamido)methyl)benzoic acid] | < 0.1 | ≤ 0.1 |
| C[C@H](NC(=O)c1cc(-c2ccccc2)cc2ccn(Cc3cccc(C(F)(F)F)c3)c12)c1ccc(C(=O)O)cc1 [Example 129, (S)-4-(1-(5-phenyl-1-(3-(trifluoromethyl)benzyl)-1H-indole-7-carboxamido)ethyl)benzoic acid] | < 0.1 | ≤ 0.1 |
| C[C@H](NC(=O)c1cc(-c2ccc(F)cc2)cc2cnn(Cc3cccc(C(F)(F)F)c3)c12)c1ccc(C(=O)O)cc1 [Example 134, (S)-4-(1-(5-(4-fluorophenyl)-1-(3-(trifluoromethyl)benzyl)-1H-indazole-7-carboxamido)ethyl)benzoic acid] | < 0.1 | ≤ 0.1 |
| C[C@H](NC(=O)c1cc(-c2ccccc2)cc2cnn(Cc3cccc(C(F)(F)F)c3)c12)c1ccc(C(=O)O)cc1 [Example 135, (S)-4-(1-(5-phenyl-1-(3-(trifluoromethyl)benzyl)-1H-indazole-7-carboxamido)ethyl)benzoic acid] | < 0.1 | ≤ 0.1 |
| C[C@H](NC(=O)c1cc(-c2cc(F)cc(F)c2)cc2cnn(Cc3cccc(C(F)(F)F)c3)c12)c1ccc(C(=O)O)cc1 [Example 136, (S)-4-(1-(5-(3,5-difluorophenyl)-1-(3-(trifluoromethyl)benzyl)-1H-indazole-7-carboxamido)ethyl)benzoic acid] | < 0.1 | ≤ 0.1 |
| O=C(O)c1ccc(CNC(=O)c2cc(-c3ccccc3)cc3cnn(Cc4cccc(C(F)(F)F)c4)c23)cc1 [Example 137, 4-((5-phenyl-1-(3-(trifluoromethyl)benzyl)-1H-indazole-7-carboxamido)methyl)benzoic acid] | < 0.1 | ≤ 0.1 |
| O=C(O)c1ccc(CNC(=O)c2cc(-c3ccccc3)cc3ccn(Cc4ccc5ccccc5n4)c23)cc1 [Example 141, 4-((5-phenyl-1-(quinolin-2-ylmethyl)-1H-indole-7-carboxamido)methyl)benzoic acid] | < 0.1 | ≤ 0.1 |
| O=C(O)c1ccc(CNC(=O)c2cc(-c3ccccc3)cc3ccn(Cc4ccc(-c5ccccc5)cc4)c23)cc1 [Example 147, 4-((1-([1,1′-biphenyl]-4-ylmethyl)-5-phenyl-1H-indole-7-carboxamido)methyl)benzoic acid] | < 0.1 | ≤ 0.1 |
| O=C(O)c1ccc(CNC(=O)c2cc(-c3cc(F)cc(F)c3)cc3ccn(Cc4ccc(-c5ccccc5)cc4)c23)cc1 [Example 149, 4-((1-([1,1′-biphenyl]-4-ylmethyl)-5-(3,5-difluorophenyl)-1H-indole-7-carboxamido)methyl)benzoic acid] | < 0.1 | ≤ 0.1 |
| C[C@H](NC(=O)c1cc(-c2ccccc2)cc2ccn(Cc3ccc(-c4ccccc4)cc3)c12)c1ccc(C(=O)O)cc1 [Example 150, (S)-4-(1-(1-([1,1′-biphenyl]-4-ylmethyl)-5-phenyl-1H-indole-7-carboxamido)ethyl)benzoic acid] | < 0.1 | ≤ 0.1 |
| C[C@H](NC(=O)c1cc(-c2ccc(F)cc2)cc2ccn(Cc3ccc(-c4ccccc4)cc3)c12)c1ccc(C(=O)O)cc1 [Example 151, (S)-4-(1-(1-([1,1′-biphenyl]-4-ylmethyl)-5-(4-fluorophenyl)-1H-indole-7-carboxamido)ethyl)benzoic acid] | < 0.1 | ≤ 0.1 |

Reference: US20250179017A1 (GUANGDONG NEWOPP BIOPHARMACEUTICALS CO., LTD., priority 2022, published 2025)
